≈ marks a conversion by molar mass, not a printed value. Entries after “also recorded” stand apart in the source; their conditions may differ. Like-named read-outs stand apart in the source and are kept apart here.
Tests used:
[1] = test system: Mycobacterium tuberculosis H37Rv strain (Mtb); test: Susceptibility of M. tuberculosis in broth culture (OD600 and CFU analysis); type: cell-based; conditions: for MIC50: Mycobacterium tuberculosis; for MIC50 / MIC50 anti-Mtb (OD): M. tuberculosis H37Rv, broth culture, 96 h; for Bactericidal activity against M. tuberculosis (in words): tested at 1–0.25 mM, OD600
Escherichia coli = test: Broth microdilution susceptibility test (CLSI), E. coli; type: cell-based; conditions: for MIC50: Escherichia coli, read-out: MIC50 anti-E. coli
Staphylococcus aureus = test: Broth microdilution susceptibility test (CLSI), S. aureus; type: cell-based; conditions: for MIC50: Staphylococcus aureus, read-out: MIC50 anti-S. aureus
[2] = test system: Mycobacterium tuberculosis in human monocyte-derived macrophages; test: Bactericidal effect against intracellularly growing tubercle bacilli in human monocyte-derived macrophages (CFU); type: cell-based; conditions: Mtb-infected human MDMs; for Inhibition of growth of intracellularly deposited tubercle bacilli (in words): 48 h, compounds at MIC50 concentrations
[3] = Lipophilicity, octanol/water partition coefficient (LogP); type: physicochemical
Description: The most important parameter of drug candidates is lipophilicity, which determines water solubility, absorption and often cytotoxicity. The lipophilicity of the synthesized compounds was measured as the partition (P) or distribution (D) coefficient. The octanol/water partition/distribution coefficient is a widely used parameter for measuring lipophilicity. The Log P value is the ratio of the concentrations of a neutral substance in two immiscible phases: water and octan-1-ol. Log D is the log partition at a particular pH, and it is usually reserved for partition coefficients measured under conditions in which the solute is partially or completely ionized in the aqueous phase. For all compounds used in this work, the LogP and cLogP values were determined (Table 4). Each compound was also analysed by TLC (thin layer chromatography) and ^1H-NMR to verify its purity. All synthesized and tested compounds were analytically pure. Complete characterization of the products was performed by NMR spectroscopy and HR-MS techniques to confirm their purity and molecular structures.

[4] = test system: human monocyte-derived macrophages (MDMs); conditions: MTT, 48 h, uninfected MDMs; 50, 30, 30, 25 µM for 6, 16A, 20, 23
bacterium = test system: bacterium; parameters: method as in PMID 387415, PMID 16707680; conditions: as low as; after siderophore-dependent uptake and intracellular activation; cited from earlier work
[5] = read by CFU, read-out: MIC50 anti-Mtb (CFU)
[6] = microdilution, Mueller-Hinton broth, 18 h, OD600
[7] = read by OD600, read-out: MIC50 anti-Mtb (OD)

Compound	MIC50 (Escherichia coli; [6]) [µM]	MIC50 (Staphylococcus aureus; [6]) [µM]	logP [3]	MIC50 [1, 7] [µM]	further results
Nc1nnc(S[C@@H]2CC(=O)[C@@H]3OC[C@H]2O3)s1 [Compound 23, (1R,2R,5R)-2-((5-amino-1,3,4-thiadiazol-2-yl)-thio)-6,8-dioxabicyclo[3.2.1]octan-4-one]	> 1250	> 625	1.37	–	MIC50 [1, 5]: 25 µM (≈ 6.48 µg/mL); Concentration inhibiting the growth of E. coli (Escherichia coli): below 1 mM; Concentration inhibiting the growth of S. aureus (Staphylococcus aureus): ≤ 1 mM; Inhibition of growth of intracellularly deposited tubercle bacilli (in words) [2]: able to inhibit the growth; also recorded: significantly inhibit the growth; melting point: 140 to 142 °C; OD[570nm] ± SD [4]: 2.428 ± 0.031
OC1C(O)C(O)C2(CO2)C(O)C1O (centres unmarked) [Compound 4, 2-C-methylene-myo-inositol oxide]	–	–	-3.22	> 1000	Bactericidal activity against M. tuberculosis (in words) [1]: not active
CC(=O)OC[C@H]1O[C@@H](S[C@@H]2CC(=O)[C@@H]3OC[C@H]2O3)[C@H](OC(C)=O)[C@@H](OC(C)=O)[C@@H]1OC(C)=O [Compound 6]	5000 (≈ 2450 µg/mL)	2500 (≈ 1230 µg/mL)	-1.13	–	MIC50 [1, 5]: 50 µM (≈ 24.5 µg/mL); Inhibition of growth of intracellularly deposited tubercle bacilli (in words) [2]: able to inhibit the growth; also recorded: significantly inhibit the growth; OD[570nm] ± SD [4]: 2.163 ± 0.054
O=C(O)c1ccccc1S[C@@H]1CC(=O)[C@@H]2OC[C@H]1O2 [Compound 8, 1,6-anhydro-3-deoxy-4-S-β-salicylyl-D-glycero-hexopyranos-2-ulose]	> 10000	> 10000	1.28	–	MIC50 [1, 5]: 200 µM (≈ 56.1 µg/mL); Fold increase of the concentration (MIC50) needed to inhibit Mtb relative to compound 6 [1]: 4 times
COCC(OC(C)=O)[C@H]1O[C@@H]2OC(C)(C)O[C@@H]2[C@H]1OC(C)=O (stereo partly drawn) [Compound 12, 1,2-O-isopropylidene-3,5-di-O-acetyl-6-methoxy-D-glucofuranose]	> 5000	> 10000	-0.2	> 1000	–
NC(=S)NN=C1C=C[C@H]2CO[C@@H]1O2 [Compound 14, 1,6-anhydro-3,4-dideoxy-α-D-glycero-hex-3-enopyranos-2-thiosemicarbazone]	> 5000	> 5000	-0.18	350 (≈ 69.7 µg/mL)	–
O=C1C[C@@H](SC2=NCCS2)[C@H]2CO[C@@H]1O2 [Compound 26, (1R,2R,5R)-2-((4,5-dihydrothiazol-2-yl)-thio)-6,8-dioxabicyclo[3.2.1]octan-4-one]	> 2500	> 2500	1.13	–	MIC50 [1, 5]: 50 µM (≈ 12.3 µg/mL); Concentration inhibiting the growth of E. coli (Escherichia coli): below 1 mM; Inhibition of growth of intracellularly deposited tubercle bacilli (in words) [2]: able to inhibit the growth; melting point: 127 to 129 °C
CC(=O)N[C@H]1CO[C@H](CO)[C@@H](O)[C@@H]1O [Compound 10, 2-acetamido-2-dexy-1,5-anhydro-D-mannitol]	> 10000	> 10000	-2.75	> 1000	–
O=[N+]([O-])CC1(O)O[C@H](CO)[C@@H](O)[C@H](O)[C@H]1O (stereo partly drawn) [Compound 13, 1-C-nitromethyl-D-gluco-pyranose]	> 10000	> 10000	-4.22	> 1000	–
CC1(C)O[C@H]2O[C@H](C3CO3)[C@H](O)[C@H]2O1 (stereo partly drawn) [Compound 11, 1,2-O-isopropylidene-5,6-anhydro-D-glucofuranose]	–	–	-0.39	750 (≈ 152 µg/mL)	–
NC(=S)NN=C1CC[C@H]2CO[C@@H]1O2 [Compound 14A, 1,6-anhydro-3,4-dideoxy-α-D-glycero-hexopyranos-2-thiosemicarbazone]	> 2500	> 1250	-0.29	> 1000	–
CC(=O)OC[C@H]1O[C@@H](O[C@H]2[C@H](OC(C)=O)[C@@H](OC(C)=O)[C@H](S[C@@H]3CC(=NNC(N)=S)[C@@H]4OC[C@H]3O4)O[C@@H]2COC(C)=O)[C@H](OC(C)=O)[C@@H](OC(C)=O)[C@H]1OC(C)=O [Compound 16A]	–	> 1250	–	–	MIC50 [1, 5]: 30 µM (≈ 25.6 µg/mL); Concentration inhibiting the growth of E. coli (Escherichia coli): below 1 mM; MIC50 (Escherichia coli; microdilution, Mueller-Hinton broth, 18 h, OD600, printed in µM): > 150 µM; Inhibition of growth of intracellularly deposited tubercle bacilli (in words) [2]: able to inhibit the growth; Decrease of the number of intracellularly growing mycobacteria ([2]; MOI 1:10, 48 h, compound at MIC (30 µM for 16A), CFU vs untreated control): ~61%
5-thio-D-glucose pentaacetate [Compound 1]	–	–	–	–	MIC50 anti-Mtb (OD) ([1]; read by OD600): MIC50 > 1 mM/OD; Bactericidal activity against M. tuberculosis (in words) [1]: not bactericidal; logP ([3]; octanol/water): −0.51
6-thio-β-D-fructopyranose [Compound 2]	–	–	–	–	MIC50 anti-Mtb (OD) ([1]; read by OD600): MIC50 > 1 mM/OD; Bactericidal activity against M. tuberculosis (in words) [1]: not bactericidal; MIC50 anti-E. coli (Escherichia coli; [6]): MIC50 > 2 mM/E. coli MIC50 > 2 mM/S. aureus; MIC50 anti-S. aureus (Staphylococcus aureus; [6]): MIC50 > 2 mM/E. coli MIC50 > 2 mM/S. aureus; logP ([3]; octanol/water): −1.36
CC(=O)OC[C@H]1O[C@@H](O[C@H]2[C@H](OC(C)=O)[C@@H](OC(C)=O)[C@H](S[C@@H]3CC(=O)[C@@H]4OC[C@H]3O4)O[C@@H]2COC(C)=O)[C@H](OC(C)=O)[C@@H](OC(C)=O)[C@H]1OC(C)=O [Compound 16]	> 5000	> 5000	-2.18	500 (≈ 389 µg/mL)	Fold increase of the concentration (MIC50) needed to inhibit Mtb relative to compound 6 [1]: 10 times
CS(=O)(=O)NC[C@H]1OC[C@H](O)[C@@H](O)[C@@H]1O [Compound 5, 1,5-anhydro-6-deoxy-6-methanesulfamido-D-glucitol]	> 2000	> 2000	-3.6	> 1000	Bactericidal activity against M. tuberculosis (in words) [1]: not active
CC(=O)OC[C@H]1O[C@@H](O[C@H]2[C@H](OC(C)=O)[C@@H](OC(C)=O)[C@H](SC34CC5CC(CC(C5)C3)C4)O[C@@H]2COC(C)=O)[C@H](OC(C)=O)[C@@H](OC(C)=O)[C@H]1OC(C)=O [Compound 19]	–	–	–	500 (≈ 393 µg/mL)	–
CC(=O)OC[C@H]1O[C@@H](S[C@@H]2CC(=O)[C@@H]3OC[C@H]2O3)[C@H](OC(C)=O)[C@@H](OC(C)=O)[C@H]1OC(C)=O [Compound 9]	–	–	-1.13	> 150	Fold increase of the concentration (MIC50) needed to inhibit Mtb relative to compound 6 [1]: at least 3 times
O=C1C[C@@H](S[C@@H]2O[C@H](CO)[C@@H](O)[C@H](O)[C@H]2O)[C@H]2CO[C@@H]1O2 [Compound 7, 1,6-anhydro-3-deoxy-4-S-β-D-glucopyranosyl-D-glycero-hexopyranos-2-ulose]	> 10000	> 10000	-2.05	–	MIC50 [1, 5]: 500 µM (≈ 161 µg/mL); Fold increase of the concentration (MIC50) needed to inhibit Mtb relative to compound 6 [1]: 10 times
OC[C@@]12CO[C@H](O1)[C@H](O)[C@@H](O)[C@H]2O [Compound 3, 1,6-anhydro-5-C-hydroxymethyl-α-L-altro-pyranose]	–	–	-2.38	> 1000	Bactericidal activity against M. tuberculosis (in words) [1]: not observed
albomycin	–	–	–	–	MIC (bacterium): 0.008 µM

Source: publication PMC6154314, “Evaluation of the Mycobactericidal Effect of Thio-functionalized Carbohydrate Derivatives” (Molecules : A Journal of Synthetic Chemistry and Natural …, 2017)
